{"source": "patent US20120245201A1", "about": "“Isopropylphenidate for Treatment of Attention-Deficit/Hyperactivity Disorder and Fatigue-Related Disorders and Conditions” (priority 2009, published 2012)", "key": {"dogs": {"system": "dogs", "settings": "reserpine pre-treated dogs; cited from earlier work"}, "hCES1": {"target": "T1, hCES1 (Homo sapiens, UniProt P23141)", "T1 sequence (P23141 18-567)": "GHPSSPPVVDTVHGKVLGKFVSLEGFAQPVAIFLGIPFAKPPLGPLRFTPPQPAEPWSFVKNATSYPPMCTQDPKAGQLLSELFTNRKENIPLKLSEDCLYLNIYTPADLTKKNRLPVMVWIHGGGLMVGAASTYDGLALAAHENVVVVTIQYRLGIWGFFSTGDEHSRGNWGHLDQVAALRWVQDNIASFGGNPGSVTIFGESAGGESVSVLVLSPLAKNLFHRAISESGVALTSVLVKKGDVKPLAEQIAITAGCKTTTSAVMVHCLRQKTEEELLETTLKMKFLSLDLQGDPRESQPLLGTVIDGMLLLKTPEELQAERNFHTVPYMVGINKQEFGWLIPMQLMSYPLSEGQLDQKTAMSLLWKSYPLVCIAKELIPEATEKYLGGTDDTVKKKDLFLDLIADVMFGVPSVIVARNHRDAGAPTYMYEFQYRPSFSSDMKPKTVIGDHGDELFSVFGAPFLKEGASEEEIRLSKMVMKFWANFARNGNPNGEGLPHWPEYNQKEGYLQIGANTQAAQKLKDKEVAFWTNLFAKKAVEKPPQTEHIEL", "assay": "Transesterification potential in the presence of ethanol, s9 fraction of hCES1-transfected cells", "settings": "for effect of ethanol on formation of the hydrolytic product RA: hCES1 s9; for EPH formation with ethanol when hCES1 was not present: incubation with ethanol, no hCES1", "method": "FIG. 3—Transesterification potential of isopropylphenidate (IPH) versus methylphenidate (MPH) by s9 fractions of CES1 transfected cells in the presence of ethanol. MPH (1 mM) or IPH (1 mM) was incubated with s9 fractions of hCES1 overexpressing cells (2 mg/ml) in the presence or absence of ethanol (10 mM) at 37° C. for 30 min. The transesterification product EPH and hydrolytic metabolite RA were analyzed utilizing established HPLC assays. […] Data are expressed as mean±SEM of three independent experiments.\nAn In Vitro Investigation of the Transesterification Potential of Isopropylphenidate versus Methylphenidate in the Presence of Ethanol. The s9 fraction of hCES1-transfected cells, d1-MPH), dl-IPH, and ethanol working solution were prepared in DPBS containing 20 mM HEPES, pH7.4. The reaction was initiated by mixing 200 μl of s9 fraction, 100 μl of substrates (MPH or IPH) and 100 μl of ethanol. The final concentrations of s9 fraction protein, MPH, IPH, and ethanol were 2 mg/ml, 1 mM, 1 mM, and 10 mM, respectively. After incubation at 37° C. for 1 h, the reaction was terminated by adding a four-fold concentration of ice-cold methanol. The samples were then centrifuged at 16,000 g for 5 min, and the resulting supernatant was subjected to HPLC analysis to assess each for the formation and/or concentration of the hydrolytic product of both MPH and IPH, and common metabolite RA. Additionally, the samples were assayed for the presence of the transesterification metabolite ethylphenidate (EPH). Further, the s9 fraction prepared from the vector-transfected cells was included in this study as a control for any non-enzymatic hydrolysis which might occur. The hCES1 mediated MPH and IPH hydrolysis was estimated by deducting the amounts of RA produced in the vector s9 samples from the RA formation observed in the hCES1 s9 samples."}, "[1]": {"target": "T2, human carboxylesterase 1 (hCES1) (Homo sapiens, UniProt P23141)", "T2 construct": "expressed in transfected cells", "T2 sequence (P23141 18-567)": "T1 sequence (P23141 18-567)", "assay": "Hydrolysis to ritalinic acid by recombinant hCES1 (s9 fraction of transfected cells)", "type": "in vitro ADME", "settings": "1 mM substrate, 60 min", "method": "FIG. 2—Hydrolysis of methylphenidate (MPH) and isopropylphenidate (IPH) by recombinant human CES1, HLM, HIM. After incubation with CES 1 transfected human cells, HLM, and HIM at 37° C. for 60 min, the metabolite RA produced via hydrolysis of MPH and IPH was determined by HPLC. Data are presented as mean±SEM of 3 to 6 independent experiments.\nDetermination of Relative Hydrolytic Rates of MPH and IPH. The assessment of relative rates of hydrolysis of the two ester compounds utilized both cell culture and human liver microsomes (HLM) and human intestinal microsomes (HIM). The human carboxylesterase 1 (hCES1) s9 fraction was prepared utilizing a novel method developed in the inventors' laboratory previously (Zhu et al., 2008). Hydrolysis of IPH and MPH by hCES1, HLM, and human intestinal microsomes was assessed by incubating the substrates with the respective enzymes and measuring the formation of the major metabolite RA formed via ester hydrolysis. Briefly, 50 μl of freshly prepared substrates (IPH and MPH) was mixed with 50 μl of enzymes in 1.5 ml Eppendorf tubes yielding a total volume of 100 μl. […] Concentrations of the primary hydrolytic product of the two compounds, RA were determined utilizing a validated HPLC method previously described."}, "[2]": {"system": "DA uptake, synaptosomes prepared from the rat striatum", "assay": "Dopamine uptake into synaptosomes", "type": "cell-based", "method": "(§1) Transporter Binding and Cellular Uptake. All described monoamine transporter binding studies as well as cellular uptake assays were performed in duplicate by CEREP (Celle l'Evescault, France) and are described below. Further details of all assays performed may be accessed at the CEREP web site (world-wide-web at cerep.com). Cellular-based assays were conducted to provide complementary in vitro functional measures to complement the standard transporter assays as well as to provide direct comparisons of the homologs IPH with MPH with regard to DA, NE, and 5-HT uptake in synaptosomal preparations.\nDopamine Uptake. The evaluation of the effects of the two compounds on DA uptake again utilized synaptosomes but this time prepared from the rat striatum. […] After incubation, the samples were filtered, counted, and the results expressed as a percent inhibition of the control uptake of [^3H]dopamine by scintillation count. The standard inhibitory reference compound was GBR12909, which was tested in each experiment at several concentrations to obtain an inhibition curve from which its IC50 value was calculated."}, "[3]": {"system": "5-HT uptake, synaptosomes prepared from the rat brain", "assay": "Serotonin uptake into synaptosomes", "type": "cell-based", "method": "as §1\nSerotonin Uptake. The assessment of the relative effects of IPH and MPH on 5-HT uptake utilized measures of [^3H]5-HT incorporation into synaptosomes prepared from the rat brain. […] Following incubation, the samples were filtered, counted using a scintillation instrument, and the results expressed as a percent inhibition of the control uptake of [^3H]5-HT. The standard inhibitory reference compound was the TCA imipramine, which was tested in each experiment at several concentrations to obtain an inhibition curve from which its IC50 value was calculated."}}, "data": [{"smiles": "CC(C)OC(=O)C(c1ccccc1)C1CCCCN1", "note": "(racemic) [IPH, dl-threo-α-phenyl-2-piperidineacetic acid isopropyl ester]", "values": [{"measurement": "potency versus MPH in antagonizing the physiological influences of reserpine", "setting": "dogs", "value": "lower potency"}, {"measurement": "velocity of hCES1-mediated transesterification to EPH", "setting": "hCES1; 1 mM substrate, 10 mM ethanol, 2 mg/ml s9 protein, 37° C.", "value": "47.5±3.3", "unit": "pmole/min/mg protein"}, {"measurement": "effect of ethanol on formation of the hydrolytic product RA", "setting": "hCES1; 10 mM ethanol", "value": "significantly decreased"}, {"measurement": "EPH formation with ethanol when hCES1 was not present", "setting": "hCES1", "value": "no EPH formation was observed"}, {"measurement": "substrate quality for hCES1 hydrolysis", "setting": "[1]; 37° C.", "value": "poor substrate of hCES1"}, {"measurement": "% inhibition of control specific binding; [3H]DA incorporation into synaptosomes", "setting": "[2]; 10 μM, rat striatum synaptosomes", "value": 96, "unit": "%"}, {"measurement": "% inhibition of control specific binding; [3H]5-HT incorporation into synaptosomes", "setting": "[3]; 10 μM", "value": 28, "unit": "%"}]}, {"smiles": "COC(=O)C(c1ccccc1)C1CCCCN1", "note": "(racemic) [MPH, dl-threo-methylphenidate, reference compound]", "values": [{"measurement": "effect of ethanol on formation of the hydrolytic product RA", "setting": "hCES1; 10 mM ethanol", "value": "significantly decreased"}, {"measurement": "EPH formation with ethanol when hCES1 was not present", "setting": "hCES1", "value": "no EPH formation was observed"}, {"measurement": "catalytic efficiency of hCES1-mediated hydrolysis, MPH relative to IPH", "setting": "[1]; 0.5 mg/ml hCES1, 37° C., RA formation by HPLC", "value": "approximately 10 fold"}, {"measurement": "inhibition at 10 µM", "setting": "[2]; Rattus norvegicus, read-out: % inhibition of control specific binding, [3H]DA incorporation into synaptosomes", "value": 90, "unit": "%"}, {"measurement": "inhibition at 10 µM", "setting": "[3]; read-out: % inhibition of control specific binding, [3H]5-HT incorporation into synaptosomes", "value": 35, "unit": "%"}]}]}
